From patent EP0025288A1, “Derivatives of monic acid, processes for their preparation, compositions containing them and their preparation” (priority 1979, dated 1981)
Values after ≈ are worked out from the molar mass of the structure shown.

How the values were obtained:
[1] = system: Staph aureus Oxford; assay: MIC, veterinary bacteria; assay type: cell-based; conditions: Staphylococcus aureus, veterinary bacteria (Table 2), read-out: MIC
[2] = system: M suipneumoniae Str 11; assay: MIC, anti-mycoplasmal, Friis' broth microtiter method; assay type: cell-based; conditions: read-out: in vitro MIC, BROTH
[3] = system: E coli NCTC 10418; assay: MIC, veterinary bacteria; assay type: cell-based; conditions: veterinary bacteria (Table 2), read-out: MIC
[4] = Mean serum concentration in neonatal piglets after intramuscular or oral administration; assay type: in vivo; conditions: pig, 50 mg/kg; for concentration at 1 h: 60'
Description: e) Mean serum concentration in neonatal piglets of Examples 4 and 5 after intramuscular or oral administration at 50 mg/kg
Blood levels were assessed in neonatal piglets (2 to 4 animals per group and man bodyweights about 2 kg). The dose was 50 mg/kg (dose solution = 25 mg/ml in 25% ethanol). Doses were given by intramuscular injection and orally by stomach tube. Piglets were bled at intervals up to 8 and at 24 hours, and serum assayed microbiologically (B. subtilis ATCC 6633).

[5] = system: Strep uberis SPU1; assay: MIC, veterinary bacteria; assay type: cell-based; conditions: veterinary bacteria (Table 2), read-out: MIC
[6] = system: Strep agalactiae SPA1; assay: MIC, veterinary bacteria; assay type: cell-based; conditions: veterinary bacteria (Table 2), read-out: MIC
[7] = system: M pneumoniae ATCC 15492; assay: MIC, anti-mycoplasmal, Friis' broth microtiter method; assay type: cell-based; conditions: read-out: in vitro MIC, BROTH
[8] = system: M suipneumoniae J2206/183b; assay: as above; assay type: cell-based; conditions: read-out: in vitro MIC, BROTH
[9] = system: Past Haemolytica PA5; assay: MIC, veterinary bacteria; assay type: cell-based; conditions: veterinary bacteria (Table 2), read-out: MIC
[10] = Serum binding by ultrafiltration; assay type: in vitro ADME, pig; conditions: pig, serum, compounds at 8 mcg/ml, microbiological assay (B. subtilis ATCC 6633), read-out: % bound to pig serum (converted)
Description: Serum binding was assessed by ultrafiltration of procine serum containing compounds at 8 mcg/ml, and through an Amicon CF50A ultrafiltration cone. Separation of ultrafiltrate was achieved by centrifugation.

[11] = system: E coli E1; assay: MIC, veterinary bacteria; assay type: cell-based; conditions: veterinary bacteria (Table 2), read-out: MIC
[12] = system: Past multocida PA1; assay: MIC, veterinary bacteria; assay type: cell-based; conditions: veterinary bacteria (Table 2), read-out: MIC
[13] = system: S dublin S7; assay: MIC, veterinary bacteria; assay type: cell-based; conditions: veterinary bacteria (Table 2), read-out: MIC
[14] = system: S typhimurium S18; assay: MIC, veterinary bacteria; assay type: cell-based; conditions: veterinary bacteria (Table 2), read-out: MIC
[15] = system: Past multocida PA2; assay: MIC, veterinary bacteria; assay type: cell-based; conditions: veterinary bacteria (Table 2), read-out: MIC
[16] = system: M pulmonis JB; assay: MIC, anti-mycoplasmal, Friis' broth microtiter method; assay type: cell-based; conditions: read-out: in vitro MIC, BROTH
[17] = system: M dispar NCTC 10125; assay: as above; assay type: cell-based; conditions: read-out: in vitro MIC, BROTH
[18] = system: M pneumoniae 427a; assay: as above; assay type: cell-based; conditions: read-out: in vitro MIC, BROTH
[19] = system: Staph aureus 152 (pen sens); assay: MIC, veterinary bacteria; assay type: cell-based; conditions: Staphylococcus aureus, veterinary bacteria (Table 2), read-out: MIC
[20] = system: M fermentans MWKL4; assay: MIC, anti-mycoplasmal, Friis' broth microtiter method; assay type: cell-based; conditions: read-out: in vitro MIC, BROTH
[21] = system: Corynebacterium pyogenes CY1; assay: MIC, veterinary bacteria; assay type: cell-based; conditions: veterinary bacteria (Table 2), read-out: MIC
[22] = system: Strep dysgalaciae SPD1; assay: MIC, veterinary bacteria; assay type: cell-based; conditions: veterinary bacteria (Table 2), read-out: MIC
[23] = system: Strep suis (group D) SPS11; assay: MIC, veterinary bacteria; assay type: cell-based; conditions: veterinary bacteria (Table 2), read-out: MIC
[24] = system: Bord bronchisptica BO9; assay: MIC, veterinary bacteria; assay type: cell-based; conditions: veterinary bacteria (Table 2), read-out: MIC
[25] = system: Bord bronchiseptica BO8; assay: MIC, veterinary bacteria; assay type: cell-based; conditions: veterinary bacteria (Table 2), read-out: MIC
[26] = system: M dispar H225; assay: MIC, anti-mycoplasmal, Friis' broth microtiter method; assay type: cell-based; conditions: read-out: in vitro MIC, BROTH
[27] = system: Erysipelothrix rhusiopathiae NCTC 8163; assay: MIC, veterinary bacteria; assay type: cell-based; conditions: NCTC8163, veterinary bacteria (Table 2), read-out: MIC
[28] = system: Staph aureus B4 (pen resis); assay: MIC, veterinary bacteria; assay type: cell-based; conditions: Staphylococcus aureus, veterinary bacteria (Table 2), read-out: MIC

SMILES: CC(=CC(=O)OCCCC(=O)c1cccs1)CC1OCC(CC2OC2C(C)C(C)O)C(O)C1O (centres unmarked) [Example 4, 4(1-Thienyl-2-ylbutan-1-onyl) monate A]
- MIC [1]: 0.156 µg/mL (≈ 0.314 µM)
- MIC [2]: 0.078 µg/mL (≈ 0.157 µM)
- MIC [3]: > 80 µg/mL
- concentration at 10 min ([4]; im): 9000 ng/mL
- concentration at 20 min ([4]; im): 8900 ng/mL
- concentration at 40 min ([4]; im): 10000 ng/mL
- concentration at 1 h ([4]; im): 8500 ng/mL
- concentration at 2 h ([4]; im): 3300 ng/mL
- concentration at 3 h ([4]; im): 1900 ng/mL
- concentration at 4 h ([4]; im): 1600 ng/mL
- concentration at 6 h ([4]; im): 830 ng/mL
- concentration at 8 h ([4]; im): 710 ng/mL
- concentration at 24 h ([4]; im): < 120 ng/mL
- concentration at 10 min ([4]; po): 5300 ng/mL
- concentration at 20 min ([4]; po): 5500 ng/mL
- concentration at 40 min ([4]; po): 6500 ng/mL
- concentration at 1 h ([4]; po): 5700 ng/mL
- concentration at 2 h ([4]; po): 2400 ng/mL
- concentration at 3 h ([4]; po): 1400 ng/mL
- concentration at 4 h ([4]; po): 1400 ng/mL
- concentration at 6 h ([4]; po): 770 ng/mL
- concentration at 8 h ([4]; po): 740 ng/mL
- concentration at 24 h ([4]; po): 150 ng/mL
- MIC [5]: < 0.019 µg/mL
- MIC [6]: 0.312 µg/mL (≈ 0.628 µM)
- MIC [7]: 0.312 µg/mL (≈ 0.628 µM)
- MIC [8]: 0.078 µg/mL (≈ 0.157 µM)
- MIC [9]: 5 µg/mL (≈ 10.1 µM)
- fraction unbound [10]: 0.012
- MIC [11]: > 80 µg/mL
- MIC [12]: 0.312 µg/mL (≈ 0.628 µM)
- MIC [13]: > 80 µg/mL
- MIC [14]: > 80 µg/mL
- MIC [15]: 0.07 µg/mL (≈ 0.141 µM)
- MIC [16]: < 0.02 µg/mL
- MIC [17]: 0.039 µg/mL (≈ 0.0785 µM)
- MIC [18]: 0.312 µg/mL (≈ 0.628 µM)
- MIC [19]: 0.156 µg/mL (≈ 0.314 µM)
- MIC [20]: < 0.02 µg/mL
- MIC [21]: > 80 µg/mL
- MIC [22]: 0.156 µg/mL (≈ 0.314 µM)
- MIC [23]: 2.5 µg/mL (≈ 5.03 µM)
- MIC [24]: 5 µg/mL (≈ 10.1 µM)
- MIC [25]: 40 µg/mL (≈ 80.5 µM)
- MIC [26]: < 0.02 µg/mL
- MIC [27]: 20 µg/mL (≈ 40.3 µM)
- MIC [28]: 0.156 µg/mL (≈ 0.314 µM)
